The record followed here is US20100286406A1, “1,3- DIALKYLBENZIMIDAZOLE HALOGENIDES EXHIBITING REGENERATIVE, ANTI-INFLAMMATORY, AND ANTIMICROBIAL ACTIVITY” (priority 2007, published 2010).

The subject of this assay is burn caused by light radiation. Kind of assay: Light radiation burn model, epithelization of burn wounds (regenerative activity). The class given is in vivo. The text has this: The regenerative activity of the claimed compounds was studied on a model of a burn caused by light radiation on a specialized apparatus. […] Unless this medication is applied to a burn, a keloidal scar is produced on the burn area and no skin appendages are formed.

For `CC(C)(CO)C(O)C(=O)NCCCO` (centres unmarked) [Panthenol, 2,4-dioxy-N-(3-oxypropyl)-3,3-dimethylbutyramide], the “Percentage of fully epithelized burn wounds” value by setting is: (25th day of observations) 55%; (30th day of observations) 85%.
